Data published in patent publication US20240279233A1, “MACROCYCLIC TAK1 INHIBITORS” (Aqilion AB, priority 2021, published 2024).
Read-outs that look alike come from different tables or passages of the source.

Biological target: human recombinant TAK1-TAB1 Kinase (TAK1 (1-303) and TAB1 (437-end)) (Homo sapiens (Human), UniProt O43318)
Assay: TAK1 biochemical ADP-Glo kinase assay
Conditions: MBP substrate
Description: The usefulness of the example compounds of the invention as TAK1 inhibitors was evaluated in a biochemical ADP-Glo kinase assay. Assay kits from Promega Corporation V4089 were used according to manufacturer's instructions and adapted as outlined here. ADP-Glo Kinase Assay kit contains ADP-Glo Reagent, Kinase Detection Reagent, kinase detection buffer, ATP, and ADP. The Kinase Enzyme Systems include human recombinant TAK1-TAB1 Kinase (TAK1 (1-303) and TAB1 (437-end)), Native Swine Myelin Basic Protein (MBP) substrate, 5×kinase reaction buffer, and DTT.
Test compounds were prepared in 1:5 serial dilutions at 8 concentrations in DMSO from 10 mM stock solutions. An additional 20-fold dilution in 1× kinase reaction buffer (see below) was performed, yielding a final dilution series in kinase buffer with 5% DMSO (final concentration in assay from 20 μM to 0.26 nM, 1% DMSO). As controls, Takinib was prepared as positive control (3 μM final in assay), and DMSO without inhibitor served as negative control, at a final assay concentration of DMSO of 1%.
One μl of compound solution in 5% DMSO was added to each well in a 384 well microtiter plate (OptiPlate #6007290). Two μl TAK1-TAB1 (7.5 ng/μl) in lxkinase reaction buffer ([…] Tris base pH 7.5, 20 mM MgCl2, 50 μM DTT, 0.1 mg/ml BSA) was added and pre-incubated 10 min before adding 2 μl of a mixture of MBP substrate and ATP (0.25 μg/μL MBP/25 μM ATP or 0.25 μg/μL MBP/2.5 mM ATP) in 1× kinase reaction buffer (as above). The plate was subsequently incubated at room temperature for 1 hour. Then 5 μl ADP-Glo™ reagent from ADP-Glo™ kit (as above) was added and incubated for 40 min to stop the reaction and consume remaining ATP. Ten μl kinase detection substrate (dissolved in kinase detection buffer, both from ADP-Glo™ kit as above) was then added to convert ADP to ATP and detect ATP with luciferase/luciferin. The plate was incubated for 30 minutes at room temperature in dark before reading luminescence on an Envision (PerkinElmer) reader.
IC50 values of compounds of the invention were determined by the non-linear regression analysis of dose response curves.

[1] = 10 μM ATP, read-out: TAK1 Mean IC50 (nM) @ 10 μM ATP
[2] = 1 mM ATP, read-out: TAK1 Mean IC50 (nM) @ 1 mM ATP

human recombinant TAK1-TAB1 Kinase (TAK1 (1-303) and TAB1 (437-end)), sequence (O43318 other isoform, or with tags, fused parts or gaps): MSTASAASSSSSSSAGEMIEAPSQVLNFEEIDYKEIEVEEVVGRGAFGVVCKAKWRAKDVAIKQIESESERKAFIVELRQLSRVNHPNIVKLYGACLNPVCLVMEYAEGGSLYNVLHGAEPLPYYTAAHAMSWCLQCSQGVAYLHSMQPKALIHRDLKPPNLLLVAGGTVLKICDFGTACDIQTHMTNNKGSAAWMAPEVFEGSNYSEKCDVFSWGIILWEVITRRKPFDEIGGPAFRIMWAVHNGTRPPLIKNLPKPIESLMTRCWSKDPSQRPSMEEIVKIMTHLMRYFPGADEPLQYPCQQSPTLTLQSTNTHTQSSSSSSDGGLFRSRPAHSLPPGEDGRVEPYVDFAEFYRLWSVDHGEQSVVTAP

IC50 [1] [nM] | IC50 [2] [nM] | Structure (SMILES)
5 | – | Cc1noc(-c2cccc3c2N2/C(=N/C(=O)c4cccc(c4)C(=O)NCCCC[C@@H]2C)N3)n1 [Example 147, (S,E)-11-methyl-1^7-(3-methyl-1,2,4-oxadiazol-5-yl)-1^2,1^3-dihydro-1^1H-2,6-diaza-1(2,1)-benzo[d]imidazola-4(1,3)-benzenacycloundecaphane-3,5-dione]
6 | – | C[C@H]1CCCCNC(=O)c2cccc(c2)C(=O)/N=C2\Nc3cccc(C(=O)N4CC(C)(O)C4)c3N21 [Example 95, (S,E)-1^7-(3-hydroxy-3-methylazetidine-1-carbonyl)-11-methyl-1^2,1^3-dihydro-1^1H-2,6-diaza-1(2,1)-benzo[d]imidazola-4(1,3)-benzenacycloundecaphane-3,5-dione]
5 | 7 | C[C@H]1CCCCNC(=O)c2cccc(c2)C(=O)/N=C2\Nc3cc(CN4CCOCC4)cc(C(=O)N(C)C)c3N21 [Example 125, (S,E)-N,N,11-trimethyl-1^5-(morpholinomethyl)-3,5-dioxo-1^2,1^3-dihydro-1^1H-2,6-diaza-1(2,1)-benzo[d]imidazola-4(1,3)-benzenacycloundecaphane-1^7-carboxamide]
2 | – | CNC(=O)c1cccc2nc3n(c12)C(C)CCCCNC(=O)c1cccc(c1)C(=O)N3 (centres unmarked) [Example 34, (E)-N,11-dimethyl-3,5-dioxo-1^2,1^3-dihydro-1^1H-2,6-diaza-1(2,1)-benzo[d]imidazola-4(1,3)-benzenacycloundecaphane-1^7-carboxamide]
5 | 9 | C[C@H]1CCCCNC(=O)c2cccc(c2)C(=O)/N=C2\Nc3cccc(N4CCC(F)C4=O)c3N21 (stereo partly drawn) [Example 146, (11S,E)-1^7-(3-fluoro-2-oxopyrrolidin-1-yl)-11-methyl-1^2,1^3-dihydro-1^1H-2,6-diaza-1(2,1)-benzo[d]imidazola-4(1,3)-benzenacycloundecaphane-3,5-dione]
– | 10 | CC1CCCCNC(=O)c2cccc(c2)C(=O)/N=C2\Nc3cccc(N4CCN(C5COC5)C4=O)c3N21 (single isomer, unassigned) [Example 144, (E)-11-methyl-1^7-(3-(oxetan-3-yl)-2-oxoimidazolidin-1-yl)-1^2,1^3-dihydro-1^1H-2,6-diaza-1(2,1)-benzo[d]imidazola-4(1,3)-benzenacycloundecaphane-3,5-dione]
9 | – | CC1CCCCNC(=O)c2cccc(c2)C(=O)/N=C2\Nc3cccc(C(=O)N4CC[C@H](F)C4)c3N21 (single isomer, unassigned) [Example 88]
– | 15 | CC1CCCCNC(=O)c2cccc(c2)C(=O)/N=C2\Nc3cccc(N4CCN(C5CC5)C4=O)c3N21 (single isomer, unassigned) [Example 141, (E)-1^7-(3-cyclopropyl-2-oxoimidazolidin-1-yl)-11-methyl-1^2,1^3-dihydro-1H-2,6-diaza-1(2,1)-benzo[d]imidazola-4(1,3)-benzenacycloundecaphane-3,5-dione]
9 | 57 | C[C@H]1CCCCNC(=O)c2cccc(c2)C(=O)/N=C2\Nc3ccnc(N4CCN(C5CC5)C4=O)c3N21 [Example 122, (S,E)-1^4-(3-cyclopropyl-2-oxoimidazolidin-1-yl)-11-methyl-1^2,1^3-dihydro-1^1H-2,6-diaza-1(2,3)-imidazo[4,5-c]pyridina-4(1,3)-benzenacycloundecaphane-3,5-dione]
7 | – | CC1CCCCNC(=O)c2cccc(c2)C(=O)/N=C2\Nc3cccc(C(=O)N(C)CC(F)F)c3N21 (single isomer, unassigned) [Example 72, (E)-N-(2,2-difluoroethyl)-N,11-dimethyl-3,5-dioxo-1^2,1^3-dihydro-1^1H-2,6-diaza-1(2,1)-benzo[d]imidazola-4(1,3)-benzenacycloundecaphane-1^7-carboxamide]
6 | – | CC1CCCCNC(=O)c2cccc(c2)C(=O)/N=C2\Nc3cccc(C(=O)N4CC[C@@H](F)C4)c3N21 (single isomer, unassigned) [Example 92]
